How the values were obtained:
liver wound bleeding = assay: Rabbit liver hemorrhage: bleeding time and extent; type: in vivo; conditions: 0.5 KU/kg injected via ear vein at wounding, vs physiological saline control
Experimental: Healthy rabbits having a weight of 2-2.5 kg were distributed randomly into four groups consisting of 6 rabbits per group. The rabbits in each group were fed only water for the twelve-hour period prior to operation. Each rabbit was anaesthetized by receiving an injection of sodium pentobarbital (30 mg/kg) in the abdominal cavity. An incision was made in the upper abdominal cavity of each animal and a piece of the liver was removed leaving a wound 2 cm in length, 1 cm in width and 0.5 cm in height.
At the time of wounding, the animals received by injection (2 ml/kg) via an ear vein one of following four compositions suspended in physiological saline: control, 0.5 KU/kg Reptilase, 25 mg/kg Sodium Dencichine, or 1 mg/kg solid dispersion composition of Dencichine prepared according to Example 1. Following the injection, the bleeding time and extent was recorded for each rabbit until the liver wound stopped bleeding.

acute gastric bleeding = assay: Gastrorrhagia of rats: acute gastric bleeding time and extent; type: in vivo, Sprague-Dawley rat; conditions: rat gastric wound; 0.5 KU/kg via femoral vein 30 min before wounding; vs physiological saline control
Experimental: Healthy Sprague-Dawley rats having a weight of 180-220 g were distributed randomly into four groups consisting of 10 rats per group. The rats in each group were fed only water for the twelve-hour period prior to operation. Each rat was anaesthetized by receiving an injection of sodium pentobarbital (30 mg/kg) in the abdominal cavity. An incision was made in the upper abdominal cavity of each animal and the stomach exposed to air and minced along the greater curvature. The stomach was vacated for each animal and cleaned with sterile cotton swab.
The animals received by injection (1 ml/100 g) via a femoral vein one of following four compositions suspended in physiological saline: control, 0.5 KU/kg Reptilase, 25 mg/kg Sodium Dencichine, or 1 mg/kg solid dispersion composition of Dencichine prepared according to Example 1. Thirty minutes following the injection, one piece of the gastric body from each animal was excised using biopsy forceps to establish acute gastric bleeding. The bleeding time and extent was recorded for each rat until the wound stopped bleeding.

tail wound bleeding = assay: Tail bleeding time of mouse; type: in vivo, ICR mouse; conditions: mouse tail cut; 0.5 KU/kg via tail vein 30 min before cut; vs physiological saline control
Experimental: Healthy male ICR mice having a weight of 18-22 g were distributed randomly into […] consisting of 10 mice per group. The animals received by injection (0.1 ml/10 g) via the tail vein one of following four compositions suspended in physiological saline: control, 0.5 KU/kg Reptilase, 25 mg/kg Sodium Dencichine, or 1 mg/kg solid dispersion composition of Dencichine prepared according to Example 1. Thirty minutes following injection the tail of each mouse was cut 0.5 cm from the tail tip. The cut tail wound bleeding of each mouse was monitored by scrubbing the tail tip with a filter paper at timed intervals (30 s, 60 s, and every 10 s thereafter) until blood could not be seen on the filter paper.

Reptilase: Haemostatic comparator injected at 0.5 KU/kg
significantly shortened: time and extent of the wound bleeding (liver wound bleeding) | time and extent of the wound bleeding (acute gastric bleeding) | time required to stop the tail wound bleeding (tail wound bleeding)
